Assays:
Solubility of HPPA-Me = type: physicochemical; conditions: aqueous solution, pH 6.5
Lipase MY = assay: Product inhibition of Lipase MY; type: biochemical, Candida rugosa
Procedure: Two hydrolysis reactions were run to determine the effect of methanol, produced as a by-product of the hydrolysis of HPPA-Me, on the activity of Lipase MY. (R,S)-HPPA-Me, 1.5 moles, 1 L of 1 M NH4 OAc, pH 6.5, 150 ml toluene, and 2 g Lipase MY were placed in flasks with and without 0.75 moles of methanol. The mixtures were shaken gently and sampled at various times to determine the concentrations of each of the stereoisomers of HPPA which were produced.
To determine the effect of the (R)-HPPA produced during the hydrolysis of (R,S)-HPPA-Me on the activity of Lipase MY, a series of three experiments were performed. Ammonium acetate, 200 ml, 0.04 M, pH 7.0, was combined with 30 ml of toluene, 40 mmoles (R,S)-HPPA-Me, 25 mg Lipase MY, and 0, 30, or 100 mM (R)-HPPA. The reactions were shaken gently for 136 hours and sampled at various times to determine the concentrations of each of the stereoisomers of HPPA which were produced.

SMILES	solubility (Solubility of HPPA-Me)	reduction in enzyme activity (Lipase MY; various amounts (30, 100 mM) at the beginning)	decrease in activity of the enzyme against HPPA-Me (Lipase MY; 0.5 equivalents at the start of the reaction)
CC(Oc1ccc(O)cc1)C(=O)O (stereo not drawn) [HPPA, 2-(4-hydroxyphenoxy)propionic acid]	high solubility	10-67%	–
CO [methanol]	–	–	39%
